What was measured:
DU-145 = conditions: DU-145, Prostate, cited from earlier work
IGROVI = conditions: cited from earlier work
U251 = conditions: U251, Central Nervous System, cited from earlier work
OVCAR-3 = conditions: OVCAR-3, Ovarian, cited from earlier work
UACC-257 = conditions: UACC-257, Melanoma, cited from earlier work
K-562 = conditions: K-562, Leukemia, cited from earlier work
recombinant rat AOR = recombinant rat AOR (Rattus norvegicus, UniProt P97584, Q160G/Q263G/Q264G/Q276G)
Experimental: Varied concentrations of illudin M were added to a 200 μl 0.5× phosphate buffered saline (PBS) solution containing 115 ng of AOR and 43.4 nmoles NADPH, and incubated for 1 minute at 37° C. Reactions were then extracted with ethyl acetate containing piperine (internal standard), dried under vacuum, resuspended in HPLC buffer A (60% acetonitrile: 40% water), and injected into a Hewlett-Packard 1050 HPLC system equipped with a Luna C18 column (Phenomenex Inc.). Metabolites were separated using buffer A at a flow rate of 1 ml/min and quantified using diode array detection at 205 nm and previously reported extinction coefficients (Tanaka, et al., 1990). Vmax and Km were calculated using the HYPER program.
Rates were quantified from metabolite peak areas using reported extinction coefficients (Tanaka, et al., 1990; McMorris, et al., 1999).

HOP-92 = conditions: HOP-92, Non-Small Cell Lung, cited from earlier work
HOP-62 = conditions: HOP-62, Non-Small Cell Lung, cited from earlier work
RPMI-8226 = conditions: RPMI-8226, Leukemia, cited from earlier work
MCF7 = conditions: MCF7, Breast, cited from earlier work
recombinant AOR = target: T1, recombinant AOR (Rattus norvegicus, UniProt P97584, Q160G/Q263G/Q264G/Q276G); test: LC/MS/MS of enzymatic and nonenzymatic GSH adducts; type: biochemical; conditions: incubations with AOR, GSH and NADPH, 1 h, 37° C.
T1 construct: made in house
T1 sequence (P97584 whole entry Q160G/Q263G/Q264G/Q276G): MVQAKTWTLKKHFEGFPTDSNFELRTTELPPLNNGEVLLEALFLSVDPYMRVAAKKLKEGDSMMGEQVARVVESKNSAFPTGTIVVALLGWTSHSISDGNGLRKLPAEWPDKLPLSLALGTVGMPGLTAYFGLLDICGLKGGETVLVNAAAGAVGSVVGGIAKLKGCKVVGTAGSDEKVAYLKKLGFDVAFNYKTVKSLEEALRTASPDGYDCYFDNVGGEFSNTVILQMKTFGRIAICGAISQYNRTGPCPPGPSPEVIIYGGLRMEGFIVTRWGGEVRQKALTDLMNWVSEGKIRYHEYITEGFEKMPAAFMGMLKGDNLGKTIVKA
Experimental: High Performance Liquid Chromatography with Tandem Mass Spectrometry (LC/MS/MS) of GSA Adducts. […] These reactions were incubated at 37° C. for 1 h. Controls lacking NAFPH were performed. Reactions were stopped and deproteinized with addition of 400 μl of ice-cold acetonitrile, spun at 3500×g for 10 min at 4° C., and the supernatants were evaporated to dryness under vacuum. Residual GSH and NADPH cofactors were removed using an Oasis C18 sample prep column (Waters Chromatography). Adducts were eluted with methanol, evaporated to dryness under vacuum, resuspended in […] of 0.1% acetic acid, and detected using liquid chromatography electrospray ionization tandem mass spectrometry performed in the positive ion mode. […] A flow rate of 0.1 ml/min and gradient of 0% buffer D (70% acetic acid (0.1%):30% acetonitrile) to 100% buffer E (20% acetic acid (0.1%):80% acetonitrile) over 30 min were used to resolve the compounds. Adducts were detected by monitoring for selected molecular ions or characteristic molecular fragments after MS/MS. Molecular fragments were obtained with 35% relative collusion energy.
Measuring GSH adduction is a commonly used technique for estimating covalent protein binding, and thus cytotoxicity, of a drug (Baillie and Kassahun, 2001). The nucleophilic thiol moiety of GSH effectively scavenges electrophilic molecules and its large size and charge prevent it from entering the active site of most enzymes. […] Daughter ions of adducts, which represent the loss of water (−18 m/z) or […] (−129 m/z), were common and monitored for in these experiments following MS/MS.
Enzymatic reduction occurred in incubations containing recombinant AOR, NADPH, and GSH, while companion nonenzymatic reductions lacked NADPH. […] However the NE irofulven-GSH adduct (FIG. 5B) was detected only after monitoring for a daughter ion (M+—H2)=536 m/z) and was 42-fold less abundant than the E adduct. […] Contrary to findings with irofulven, a great deal of NE illudin M-GSH adduct was detected in NADPH-deficient incubations.

CAKI-1 = conditions: CAKI-1, Renal, cited from earlier work
OVCAR-8 = conditions: OVCAR-8, Ovarian, cited from earlier work

recombinant rat AOR, sequence (P97584 whole entry Q160G/Q263G/Q264G/Q276G): as above

CC1=C(CO)C2=C(C)C3(CC3)[C@@](C)(O)C(=O)C2=C1 [Irofulven, 6-hydroxymethylacylfulvene]
GI50 (DU-145): 100 nM | TGI (DU-145): 2.00E−07 | log(GI50) (DU-145): −7 | log(TGI) (DU-145): −6.7 | CC50 (DU-145; read-out: LC50): ≥ 100000 nM | GI50 (IGROVI; Ovarian): 158 nM | TGI (IGROVI; Ovarian): 5.01E−07 | log(GI50) (IGROVI; Ovarian): −6.8 | log(LC50) (IGROVI; Ovarian): −5.2 | log(TGI) (IGROVI; Ovarian): −6.3 | CC50 (IGROVI; read-out: LC50, Ovarian): 6310 nM | GI50 (U251): 316 nM | TGI (U251): 6.31E−06 | log(GI50) (U251): −6.5 | log(LC50) (U251): −4.3 | log(TGI) (U251): −5.2 | CC50 (U251; read-out: LC50): 50100 nM | GI50 (OVCAR-3): 251 nM | TGI (OVCAR-3): 6.31E−07 | log(GI50) (OVCAR-3): −6.6 | log(TGI) (OVCAR-3): −6.2 | CC50 (OVCAR-3; read-out: LC50): ≥ 100000 nM | GI50 (UACC-257): 251 nM | TGI (UACC-257): 5.01E−07 | log(GI50) (UACC-257): −6.6 | log(LC50) (UACC-257): −5.3 | log(TGI) (UACC-257): −6.3 | CC50 (UACC-257; read-out: LC50): 5010 nM | GI50 (K-562): 3160 nM | TGI (K-562): 1.00E−04 | log(GI50) (K-562): −5.5 | log(TGI) (K-562): −4 | CC50 (K-562; read-out: LC50): ≥ 100000 nM | Vmax (recombinant rat AOR): 275 nmol/min/mg | decrease in the rate of metabolism by AOR (recombinant rat AOR; relative to the illudins): 100 fold | GI50 (HOP-92): 316 nM | TGI (HOP-92): 6.31E−07 | log(GI50) (HOP-92): −6.5 | log(LC50) (HOP-92): −4.6 | log(TGI) (HOP-92): −6.2 | CC50 (HOP-92; read-out: LC50): 25100 nM | GI50 (HOP-62): 158 nM | TGI (HOP-62): 3.98E−07 | log(GI50) (HOP-62): −6.8 | log(LC50) (HOP-62): −5.9 | log(TGI) (HOP-62): −6.4 | CC50 (HOP-62; read-out: LC50): 1260 nM | GI50 (RPMI-8226): 31600 nM | TGI (RPMI-8226): 7.94E−05 | log(GI50) (RPMI-8226): −4.5 | log(TGI) (RPMI-8226): −4.1 | CC50 (RPMI-8226; read-out: LC50): ≥ 100000 nM | GI50 (MCF7): 251 nM | TGI (MCF7): 2.00E−06 | log(GI50) (MCF7): −6.6 | log(TGI) (MCF7): −5.7 | CC50 (MCF7; read-out: LC50): ≥ 100000 nM | abundance of E (enzymatic) GSH adduct over NE (nonenzymatic) adduct (recombinant AOR): 42 fold | GI50 (CAKI-1): 251 nM | TGI (CAKI-1): 7.94E−07 | log(GI50) (CAKI-1): −6.6 | log(LC50) (CAKI-1): −4.3 | log(TGI) (CAKI-1): −6.1 | CC50 (CAKI-1; read-out: LC50): 50100 nM | GI50 (OVCAR-8): 200 nM | TGI (OVCAR-8): 6.31E−07 | log(GI50) (OVCAR-8): −6.7 | log(LC50) (OVCAR-8): −5 | log(TGI) (OVCAR-8): −6.2 | CC50 (OVCAR-8; read-out: LC50): 10000 nM

— patent publication US7718385B2, “Bioactivation of alkylating agents for cancer treatment” (priority 2003, dated 2010)
